{"source": "paper PMC4472782", "about": "“Antibacterial Characterization of Novel Synthetic Thiazole Compounds against Methicillin-Resistant Staphylococcus pseudintermedius” (PLoS ONE, 2015)", "key": {"[1]": {"settings": "human liver microsomes; cited from earlier work"}, "[2]": {"experiment": "Microsomal stability analysis in dog liver microsomes", "format": "in vitro ADME", "settings": "pH 7.4, dog liver microsomes", "procedure": "The reaction contained microsomal protein in 100 mM potassium phosphate, 2 mM NADPH, 3 mM MgCl2, pH 7.4. A control was run for each test agent omitting NADPH to detect NADPH-free degradation. At 0, 10, 20, 40, and 60 minutes, an aliquot was removed from each experimental and control reaction and mixed with an equal volume of ice-cold Stop Solution (methanol containing haloperidol, diclofenac, or other internal standard). Stopped reactions were incubated at least 10 minutes at -20°C, and an additional volume of water was subsequently added. The samples were centrifuged to remove precipitated protein, and the supernatants were analyzed by LC/MS/MS to quantitate the remaining parent. Data were converted to % remaining by dividing by the time zero concentration value. Data were then fitted to a first-order decay model to determine half-life. Intrinsic clearance was calculated from the half-life and the protein concentrations, as has been described elsewhere."}, "[3]": {"system": "methicillin-resistant Staphylococcus pseudintermedius", "experiment": "MIC by broth microdilution against MRSP clinical isolates", "format": "cell-based", "settings": "six MRSP isolates, triplicate", "procedure": "Fifteen isolates of S. pseudintermedius (nine MSSP and six MRSP), identified at the Indiana Animal Disease Diagnostic Laboratory from specimens collected from dogs admitted to the small animal teaching hospital at Purdue University, were included in the study. The specimens were not collected specifically for this research study but were obtained from patients admitted to the hospital for treatment. Clinical specimens were inoculated onto 5% sheep blood agar and incubated at 35°C for 18–24 hours. Standard methods including examination of colony morphology and hemolysis and biochemical tests such as tube coagulase, Voges-Proskauer (VP) and fermentation tests for maltose, trehalose and lactose, were used in addition to matrix-assisted laser desorption ionization time of flight mass spectrometry to identify isolates. Antimicrobial susceptibility was determined by broth microdilution using the SensiTitre (Thermofisher Scientific).\nBacteria were prepared in phosphate-buffered saline (PBS) until a McFarland standard of 0.5 was achieved. The solution was subsequently diluted 1:300 in Mueller-Hinton broth (MHB) to reach a starting inoculum of 1 × 10^5 colony-forming units (CFU/mL). Bacteria were then transferred to a 96-well microtiter plate. Thiazole compounds and antibiotics were added (in triplicate) to wells in the first row of the microtiter plate and then serially diluted along the vertical axis. […] The MIC was categorized as the concentration where there was no visible growth of bacteria observed."}, "[4]": {"system": "methicillin-resistant Staphylococcus pseudintermedius", "experiment": "MBC determination against MRSP clinical isolates", "format": "cell-based", "settings": "six MRSP isolates", "procedure": "(§1) The MBC was determined by plating 5 μL from wells on the 96-well microtiter plate (where the MIC was determined) where no growth was observed onto Tryptic soy agar (TSA) plates. […] The MBC was categorized as the concentration where ≥99% reduction in bacterial cell count was observed."}, "MRSP (SP3)": {"system": "MRSP (SP3)", "experiment": "Multi-step resistance selection", "format": "cell-based, Staphylococcus pseudintermedius", "procedure": "To assess the ability of MRSP to develop resistance to the thiazole compounds, a multi-step resistance selection experiment was performed, as described elsewhere. The broth microdilution method for MIC determination against a clinical isolate of MRSP (SP3) was repeated for ten passages over a period of ten days. The initial inoculum was prepared to a McFarland standard of 0.5. The solution was subsequently diluted 1:300 in MHB to reach a starting inoculum of 1 × 10^5 CFU/mL. For each subsequent passage, the inoculum for the MIC determination was adjusted to a final density of approximately 5 × 10^5 CFU/mL using the contents of a well containing a subinhibitory concentration of the compound (where bacterial growth was observed from the previous passage). Bacteria were then transferred to a new 96-well microtiter plate."}, "[5]": {"experiment": "Kinetic (turbidimetric) solubility in PBS", "format": "physicochemical", "settings": "aqueous buffer, kinetic from dmso stock; phosphate-buffered saline; highest concentration with no precipitate; read-out: Solubility Limit", "procedure": "The absorbance of the PBS-containing plate was measured prior to addition of the test agents to determine the background absorbance. After 2 hours, the presence of precipitate was detected by turbidity (absorbance at 540 nm)."}, "MRSP SP3": {"system": "MRSP SP3", "experiment": "Time-kill analysis against MRSP", "format": "cell-based, Staphylococcus pseudintermedius", "settings": "4 × MIC, MRSP SP3, 24 hour incubation at 37°C", "procedure": "MRSP SP3 cells in late logarithmic growth phase were diluted to ~1 × 10^6 CFU/mL and exposed to concentrations equivalent to 4 × MIC (in triplicate) of thiazole compounds 1–6 and rifampicin in MHB. Samples (20 μL) were collected after 0, 2, 4, 6, 8, 10, 12, and 24 hours of incubation at 37°C and subsequently serially diluted in PBS. Bacteria were then transferred to TSA plates and incubated at 37°C for 20–24 hours before viable CFU/mL values were determined."}, "[6]": {"system": "methicillin-sensitive Staphylococcus pseudintermedius", "experiment": "MBC determination against MSSP clinical isolates", "format": "cell-based", "settings": "nine MSSP isolates", "procedure": "as §1"}, "[7]": {"system": "murine macrophage cell line (J774.A1)", "experiment": "In vitro cytotoxicity analysis (MTS assay)", "format": "cell-based", "settings": "10 μg/mL, J774.A1, two hours", "procedure": "Compounds were assayed at concentrations of 5 μg/mL, 10 μg/mL, 20 μg/mL, and 40 μg/mL against a murine macrophage cell line (J774.A1) (ATCC TIB-67, American Type Culture Collection (ATCC), Manassas, VA, USA) to determine the potential toxic effect in vitro. Cells were cultured in Dulbeco’s modified Eagle’s medium (Sigma-Aldrich, St. Louis, MO, USA) with 10% fetal bovine serum (USA Scientific, Inc.) at 37°C with 5% CO2. Controls received DMSO alone at a concentration equal to that in drug-treated cell samples. The cells were incubated with the compounds in a 96-well plate at 37°C and 5.0% CO2 for two hours prior to addition of the assay reagent MTS 3-(4,5-dimethylthiazol-2-yl)-5-(3-carboxymethoxyphenyl)-2-(4-sulfophenyl)-2H-tetrazolium) (Promega, Madison, WI, USA). Absorbance readings were taken using a kinetic ELISA microplate reader (Molecular Devices, Sunnyvale, CA, USA). The quantity of viable cells after treatment with each compound was expressed as a percentage of the control, DMSO.\nAll statistical analyses were performed with GraphPad Prism 6.0 (GraphPad Software, La Jolla, CA). Data generated from cytotoxicity analysis of the thiazole compounds against J774.A1 cells and the 260 and 280 nm cell leakage analysis were analyzed using one-way ANOVA, with post hoc Tukey's multiple comparisons test (P < 0.05)."}}, "note": "Like-named read-outs stand apart in the source and are kept apart here.", "data": [{"smiles": "CCCCC#Cc1ccc(-c2nc(C)c(/C(C)=N/NC(=N)N)s2)cc1", "note": "[Compound 3]", "values": [{"measurement": "clearance rate", "setting": "[1]", "value": 3.7, "unit": "µL/min/mg"}, {"measurement": "half-life", "setting": "[1]", "value": "more than 240 minutes"}, {"measurement": "microsomal CLint", "setting": "[2]; NADPH omitted, read-out: NADPH-free CLint", "value": 6.6, "unit": "µL/min/mg"}, {"measurement": "half-life", "setting": "[2]; NADPH omitted, read-out: NADPH-free T1/2", "value": 5.85, "unit": "h"}, {"measurement": "microsomal CLint", "setting": "[2]; with NADPH, duplicate, read-out: NADPH-dependent CLint", "value": 18.7, "unit": "µL/min/mg"}, {"measurement": "half-life", "setting": "[2]; with NADPH, duplicate, read-out: NADPH-dependent T1/2", "value": 2.05, "unit": "h"}, {"measurement": "MIC50", "setting": "[3]; Staphylococcus pseudintermedius, read-out: MIC50", "value": 0.48, "unit": "µg/mL"}, {"measurement": "MIC Range", "setting": "[3]", "value": "0.18 to 1.41", "unit": "µg/mL"}, {"measurement": "MBC", "setting": "[4]; Staphylococcus pseudintermedius, read-out: MBC50", "value": 0.71, "unit": "µg/mL"}, {"measurement": "MBC Range", "setting": "[4]", "value": "0.18 to 1.41", "unit": "µg/mL"}, {"measurement": "development of resistance by MRSP", "setting": "MRSP (SP3); MRSP SP3, ten passages, resistance = greater than four-fold increase in initial MIC", "value": "not able to develop resistance"}, {"measurement": "shift in the MIC over ten passages", "setting": "MRSP (SP3); MRSP SP3, ten serial passages", "value": "no change"}, {"measurement": "MIC", "setting": "MRSP (SP3); Staphylococcus pseudintermedius, read-out: initial MIC", "value": 1.41, "unit": "µg/mL"}, {"measurement": "solubility at 2 h", "setting": "[5]", "value": 5.51, "unit": "µg/mL"}, {"measurement": "time required to completely eliminate MRSP", "setting": "MRSP SP3", "value": "within two hours"}, {"measurement": "MBC", "setting": "[6]; Staphylococcus pseudintermedius, lowest concentration that killed 50% of isolates, read-out: MBC50", "value": 0.71, "unit": "µg/mL"}, {"measurement": "MBC Range", "setting": "[6]", "value": "0.18 to 1.41", "unit": "µg/mL"}, {"measurement": "toxicity to murine macrophage cells (MTS assay)", "setting": "[7]", "value": "not toxic"}]}]}
